Test results taken from patent US11352320B2 (Merck Sharp & Dohme Corp., priority 2018, dated 2022).
Where a name gives a salt, the structure may show the parent alone.

Target: IDO1 (Homo sapiens, UniProt P14902)
Assay: IDO1 Cellular Assay in Hela Cells Stimulated with IFNγ
Type: cell-based
Set-up: endogenous in cells; host or cells: HeLa cells stimulated with IFNγ
Details: IFNγ 100 ng/mL, 300 uM L-tryptophan, about 48 hours, fluorescence readout, read-out: IDO1 HELA Cell Assay, IC50
Experimental: Biological Assays IDO1 Cellular Assay in Hela Cells Stimulated with IFNγ
Hela cells were cultured in complete Hela culture medium (90% EMEM, 10% heat-inactivated fetal bovine serum) and expanded to about 1×10^9 cells. The cells were then collected and frozen down at 1×10^7 cells/vial in 1 mL frozen medium (90% complete Hela culture medium, 10% DMSO)
Compounds to be tested were serially diluted in ten 3-fold steps in DMSO starting from 10 mM DMSO stocks in Echo low volume plate(s). Compound dilutions or DMSO alone were then dispensed from the dilution plate(s) into Greiner black 384-well assay plate(s) (catalog #781086, 50 nL/well) using an Echo 550 acoustic liquid handler (Labcyte).
Frozen Hela cells were thawed and transferred into Hela assay medium (99% complete Hela culture medium, 1% Pen/Strep) with 20 mL medium/vial of cells. The cells were spun down at 250 g in a table top centrifuge for 5 min and suspended in same volume of Hela assay medium. The cells were then counted and adjusted to a density of 2×10^5 cells/ml in Hela assay medium. Sterile L-tryptophan were added to the cells with final concentration of 300 uM L-tryptophan. A small aliquot (2 mL/plate) of Hela cells were set aside and were not treated with IFNγ, to serve as the Max-E control. The rest of Hela cells were added with sterile IFNγ (Cat #285-IF, R & D systems) with a final concentration of 100 ng/mL.
Hela cells with and without IFNγ were dispensed to the respective wells of 384-well assay plates containing the compounds. The plates were incubated for about 48 hours at a 37° C., 5% CO2 incubator. Afterwards, 12 μL of 0.5 M methyl isonipecotate in dimethyl sulfoxide were added into each well and the plates were sealed and incubated at 37° C. without CO2 overnight. The plates were centrifuged for 1 min at 200×g. The resulting fluorescence was measured in a Spectramax plate reader (Molecular Devices) with a 400 nm excitation filter and a 510 nm emission filter.
The fluorescence intensity of each well was corrected for the background observed in wells with non-IFNγ-treated cells and was expressed as a fraction of the intensity observed in wells of IFNγ-treated cells and DMSO only. Potencies were calculated by linear least squares fit to the four parameter logistic IC50 equation.
Compounds disclosed herein generally have IC50 of about 1 nM to about 1,000 nM, or more specifically, about 2 nM to about 800 nM, or more specifically, about 5 nM to about 600 nM, or still more specifically, about 10 nM to about 500 nM. Such a result is indicative of the intrinsic activity of the compounds in use as an inhibitor of an IDO enzyme.

Sequence of IDO1 (P14902 whole entry): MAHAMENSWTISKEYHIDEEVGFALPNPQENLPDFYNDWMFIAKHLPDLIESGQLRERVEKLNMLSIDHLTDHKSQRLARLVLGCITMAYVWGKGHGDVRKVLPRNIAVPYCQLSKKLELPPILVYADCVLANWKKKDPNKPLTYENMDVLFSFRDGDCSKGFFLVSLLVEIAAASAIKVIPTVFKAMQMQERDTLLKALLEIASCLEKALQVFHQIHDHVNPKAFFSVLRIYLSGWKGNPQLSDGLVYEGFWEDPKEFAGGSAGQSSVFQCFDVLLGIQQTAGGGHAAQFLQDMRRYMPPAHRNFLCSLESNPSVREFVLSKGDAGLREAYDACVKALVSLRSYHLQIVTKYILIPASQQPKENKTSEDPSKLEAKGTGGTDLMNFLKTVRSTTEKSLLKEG

IC50 [µM] | Structure (SMILES)
0.0333 | Cc1nccc(NC23CC(C(C)C(=O)Nc4ccc(Cl)cc4)(C2)C3)n1 (racemic) [Example 1, N-(4-chlorophenyl)-2-(3-((2-methylpyrimidin-4-yl)amino)bicyclo[1.1.1]pentan-1-yl)propanamide]
0.0333 | Cc1nccc(NC23CC([C@H](C)C(=O)Nc4ccc(Cl)cc4)(C2)C3)n1 (single isomer, unassigned) [Example 2, N-(4-chlorophenyl)-2-(3-((2-methylpyrimidin-4-yl)amino)bicyclo[1.1.1]pentan-1-yl)propanamide]
0.428 | Cc1nccc(NC23CC([C@H](C)C(=O)Nc4ccc(Cl)cc4)(C2)C3)n1 (single isomer, unassigned) [Example 3, N-(4-chlorophenyl)-2-(3-((2-methylpyrimidin-4-yl)amino)bicyclo[1.1.1]pentan-1-yl)propanamide]
0.388 | CC(C(=O)Nc1ccc(F)cc1)C12CC(Nc3ncnc4ccccc34)(C1)C2 (single isomer, unassigned) [Example 4, N-(4-fluorophenyl)-2-(3-(quinazolin-4-ylamino)bicyclo[1.1.1]pentan-1-yl)propanamide]
0.59 | Cc1nc(NC23CC(C(C)C(=O)Nc4ccc(F)cc4)(C2)C3)c2cc(F)ccc2n1 (single isomer, unassigned) [Example 6]
0.0177 | Cc1nc(NC23CC(C(C)C(=O)Nc4ccc(F)cc4)(C2)C3)c2cc(F)ccc2n1 (single isomer, unassigned) [Example 7]
0.33 | CC(C(=O)Nc1ccc(F)cc1)C12CC(Nc3nc(Cl)nc4c3CCC4)(C1)C2 (single isomer, unassigned) [Example 8, 2-(3-((2-chloro-6,7-dihydro-5H-cyclopenta[d]pyrimidin-4-yl)amino)bicyclo[1.1.1]pentan-1-yl)-N-(4-fluorophenyl)propanamide]
0.0111 | CC(C(=O)Nc1ccc(F)cc1)C12CC(Nc3nc(Cl)nc4c3CCC4)(C1)C2 (single isomer, unassigned) [Example 9, 2-(3-((2-chloro-6,7-dihydro-5H-cyclopenta[d]pyrimidin-4-yl)amino)bicyclo[1.1.1]pentan-1-yl)-N-(4-fluorophenyl)propanamide]
0.208 | CC(C(=O)Nc1ccc(F)cc1)C12CC(Nc3ncnc4ccc(F)cc34)(C1)C2 (single isomer, unassigned) [Example 10, N-(4-fluorophenyl)-2-(3-((6-fluoroquinazolin-4-yl)amino)bicyclo[1.1.1]pentan-1-yl)propanamide]
0.587 | CC(C(=O)Nc1ccc(F)cc1)C12CC(Nc3nccc4cccnc34)(C1)C2 (centres unmarked) [Example 12, N-(4-fluorophenyl)-2-{3-[(1,7-naphthyridin-8-yl)amino]bicyclo[1.1.1]pentan-1-yl}propanamide]
0.138 | CC(C(=O)Nc1ccc(F)cc1)C12CC(Nc3ncc(C(F)(F)F)cc3F)(C1)C2 (centres unmarked) [Example 13, N-(4-fluorophenyl)-2-(3-{[3-fluoro-5-(trifluoromethyl)pyridin-2-yl]amino}bicyclo[1.1.1]pentan-1-yl)propanamide]
0.0524 | Cc1nc(NC23CC(C(C)C(=O)Nc4ccc(F)cc4)(C2)C3)ccc1C(F)(F)F (centres unmarked) [Example 14, N-(4-fluorophenyl)-2-(3-{[6-methyl-5-(trifluoromethyl)pyridin-2-yl]amino}bicyclo[1.1.1]pentan-1-yl)propanamide]
0.079 | CC(C(=O)Nc1ccc(F)cc1)C12CC(Nc3ccc(C(F)(F)F)cn3)(C1)C2 (centres unmarked) [Example 15, N-(4-fluorophenyl)-2-(3-{[5-(trifluoromethyl)pyridin-2-yl]amino}bicyclo[1.1.1]pentan-1-yl)propanamide]
0.0272 | CC(C(=O)Nc1ccc(F)cc1)C12CC(Nc3cc(C(F)(F)F)ncn3)(C1)C2 (centres unmarked) [Example 16, N-(4-fluorophenyl)-2-(3-{[6-(trifluoromethyl)pyrimidin-4-yl]amino}bicyclo[1.1.1]pentan-1-yl)propanamide]
0.0272 | CC(C(=O)Nc1ccc(F)cc1)C12CC(Nc3nccc(C(F)(F)F)c3C#N)(C1)C2 (centres unmarked) [Example 17, 2-(3-{[3-cyano-4-(trifluoromethyl)pyridin-2-yl]amino}bicyclo[1.1.1]pentan-1-yl)-N-(4-fluorophenyl]propanamide]
0.173 | CC(C(=O)Nc1ccc(F)cc1)C12CC(Nc3cc(C(F)(F)F)ccn3)(C1)C2 (centres unmarked) [Example 18, N-(4-fluorophenyl)-2-(3-{[4-(trifluoromethyl)pyridin-2-yl]amino}bicyclo[1.1.1]pentan-1-yl)propanamide]
0.0119 | CC(C(=O)Nc1ccc(F)cc1)C12CC(Nc3c(C(F)(F)F)ccnc3F)(C1)C2 (centres unmarked) [Example 19, N-(4-fluorophenyl)-2-(3-{[2-fluoro-4-(trifluoromethyl)pyridin-3-yl]amino}bicyclo[1.1.1]pentan-1-yl)propanamide]
0.543 | CC(C(=O)Nc1ccc(F)cc1)C12CC(Nc3ncccc3C(F)(F)F)(C1)C2 (centres unmarked) [Example 20, N-(4-fluorophenyl)-2-(3-{[3-(trifluoromethyl)pyridin-2-yl]amino}bicyclo[1.1.1]pentan-1-yl)propanamide]
0.454 | CC(C(=O)Nc1ccc(F)cc1)C12CC(Nc3nccnc3C(F)(F)F)(C1)C2 (centres unmarked) [Example 21, N-(4-fluorophenyl)-2-(3-{[3-(trifluoromethyl)pyrazin-2-yl]amino}bicyclo[1.1.1]pentan-1-yl)propanamide]
0.166 | CC(C(=O)Nc1ccc(F)cc1)C12CC(Nc3ncc(C(F)(F)F)cc3F)(C1)C2 (centres unmarked) [Example 22, N-(4-fluorophenyl)-2-(3-{[3-fluoro-5-(trifluoromethyl)pyridin-2-yl]amino}bicyclo[1.1.1]pentan-1-yl)propanamide]
0.183 | CC(C(=O)Nc1ccc(F)cc1)C12CC(Nc3nncc4ccccc34)(C1)C2 (centres unmarked) [Example 23, N-(4-fluorophenyl)-2-{3-[(phthalazin-1-yl)amino]bicyclo[1.1.1]pentan-1-yl}propanamide]
0.0126 | CC(C(=O)Nc1ccc(F)cc1)C12CC(Nc3ccnc(C(F)(F)F)c3)(C1)C2 (centres unmarked) [Example 24, N-(4-fluorophenyl)-2-(3-{[2-(trifluoromethyl)pyridin-4-yl]amino}bicyclo[1.1.1]pentan-1-yl)propanamide]
0.0941 | CC(C(=O)Nc1ccc(F)cc1)C12CC(Nc3ccnc(C(F)(F)F)n3)(C1)C2 (centres unmarked) [Example 25, N-(4-fluorophenyl)-2-(3-{[2-(trifluoromethyl)pyrimidin-4-yl]amino}bicyclo[1.1.1]pentan-1-yl)propanamide]
0.0743 | CC(C(=O)Nc1ccc(F)cc1)C12CC(Nc3cccc(C(F)(F)F)n3)(C1)C2 (centres unmarked) [Example 26, N-(4-fluorophenyl)-2-(3-{[6-(trifluoromethyl)pyridin-2-yl]amino}bicyclo[1.1.1]pentan-1-yl)propanamide]
0.00483 | C[C@H](C(=O)Nc1ccc(F)cc1)C12CC(Nc3ccnc(C(F)(F)F)c3)(C1)C2 [Example 27, (S)—N-(4-fluorophenyl)-2-(3-((2-(trifluoromethyl)pyridin-4-yl)amino)bicyclo[1.1.1]pentan-1-yl)propanamide]
0.0257 | C[C@H](C(=O)Nc1ccc(F)cc1)C12CC(NCc3cccc(Cl)c3)(C1)C2 [Example 28, (S)-2-(3-((3-chlorobenzyl)amino)bicyclo[1.1.1]pentan-1-yl)-N-(4-fluorophenyl)propanamide, TFA]
0.0823 | C[C@H](C(=O)Nc1ccc(F)cc1)C12CC(NCc3cccc(C(F)(F)F)c3)(C1)C2 [Example 30, (S)-N-(4-fluorophenyl)-2-(3-((3-(trifluoromethyl)benzyl)amino)bicyclo[1.1.1]pentan-1-yl)propanamide, TFA]
0.0151 | C[C@H](C(=O)Nc1ccc(F)cc1)C12CC(N(C)Cc3cccc(C(F)(F)F)c3)(C1)C2 [Example 31, (S)-N-(4-fluorophenyl)-2-(3-(methyl(3-(trifluoromethyl)benzyl)amino)bicyclo[1.1.1]pentan-1-yl)propanamide, TFA]
0.0513 | C[C@H](C(=O)Nc1ccc(F)cc1)C12CC(NCc3ccc(Cl)c(Cl)c3)(C1)C2 [Example 32, (S)-2-(3-((3,4-dichlorobenzyl)amino)bicyclo[1.1.1]pentan-1-yl)-N-(4-fluorophenyl)propanamide, TFA]
